The values below come from US11117901B2, “Substituted pyrazolo[4,3-h]quinazolines as choline kinase inhibitors” (NERVIANO MEDICAL SCIENCES S.R.L., priority 2017, dated 2021).

Experiment [1] concerns the target T1, hChoKβ FL (Homo sapiens, UniProt Q9Y259).
T1 construct: hChoKβ full length (FL), corresponding to aminoacids 2-395; GST (N, cleaved yes); PreScission Protease recognition site (N); made in house; host or cells: Escherichia coli BL21pLysS (DE3)
In words: Biochemical kinase inhibition assay (Kinase-Glo luminescent) on hChoKβ FL. The note with it: recombinant hChoKβ FL 30 nM, ATP 5 μM, choline 20 μM, 60 min rt; read-out: ChoKβ IC50. Here is the method:
(§1) HumanΔ49ChoKα ([…]Δ49N-hChoKα) cDNA fragment 362-1534, corresponding to aminoacids 50 457 (J. Mol. Biol. 2006, 364, 136-151), and hChoKβ full length (FL), corresponding to aminoacids 2-395 ((PLoS ONE 2009, 4, e7819), were amplified by PCR from human library and cloned, inserting upstream a Prescission Protease recognition site, in pDonor 221 vector, using the Gateway Technology® (Invitrogen). After sequence control, LR reaction was performed in the final expression pGEX 2Tg vector. Both the proteins were expressed in Escherichia coli BL21pLysS (DE3) strain in auto-induction (Kessler) medium in the presence of […] carbenicillin at 25° C. for 16 h. Cells were harvested by centrifugation, the pellet was re-suspended in Lysis buffer (50 mM Tris-HCl pH 7.8, 150 mM NaCl, 10% glycerol, 0.2% CHAPS, 20 mM DTT, Protease Inhibitor Cocktail Tablets from Roche Biochemicals) and lysed by Gaulin homogenizer (Niro Soavi). The lysate was cleared by centrifugation. The supernatant was added to GSH resin and let flow by gravity. The GSH resin was washed with 5 column volume (CV) of cold wash buffer (50 mM Tris-HCl pH 7.8, 150 mM NaCl, 10% glycerol), then with 10 CV of the same buffer containing 2 mM of DTT. Both GST-Δ49N-hChoKα and hChoKβ were subjected to on-column cleavage of the GST tag with Prescission Protease overnight. The eluted cleaved proteins were further purified by ion exchange (ResQ 6 mL chromatography column from GE healthcare) with a gradient from 50 to 500 mM NaCl in 30 CV. The fractions containing […]Δ49N-hChoKα or hChoKβ were pooled, concentrated and gel filtered on a Superdex200 16/60 (GE Healthcare). The final protein concentration was estimated using the Bradford assay. All the samples purified were resolved by SDS-PAGE.
(§2) Biochemical Kinase inhibition Assay on Δ49N-hChoKα and hChoKβFL
(§3) The biochemical activity of compounds against Δ49N-ChoKα and ChoK3 FL were determined using the Kinase-Glo™ Luminescent Kinase Assay (Promega cat. V6711). The assay is based on incubation of the recombinant Δ49N-hChoKα and hChoKβ FL produced in house, 2.2 nM and 30 nM, respectively, with the specific substrates, choline (Sigma-Aldrich-C7017) and ATP, followed by quantification, at the end of reaction time, of the residual not reacted ATP.
(§4) Compounds were 3-fold serially diluted from 10 to 0.0005 μM, then incubated for 60 minutes at room temperature in the presence of ATP 5 μM, choline (5 μM for ChoKα and 20 μM for ChoKβ) and enzyme in a final volume of 19 μL of kinase buffer (50 mM Hepes pH 7.5, 10 mM MgCl2, 1 mM DTT, 3 μM Na3VO4 and 0.2 mg/mL BSA). The final concentration of DMSO was 1%. The assay was run in a robotized format on 384-well plates (Perkin Elmer cat. #6005301).
(§5) At the end of the incubation, an amount of 19 μL of KinaseGlo Reagent was added to each well to stop the reaction and after 30 minutes the luminescence signal was measured using ViewLux reader (Perkin Elmer).
(§6) All information about plate dilution, distribution and raw data of inhibition are tracked via barcode reading and stored in an Oracle DB. The data per each molecule are analyzed by an internally customized version of the SW package “Assay Explorer” which provides sigmoidal fittings of the ten-dilution curves for IC50 determination using a 4 parameter logistic equation: y=bottom+(top−bottom)/(1+10^((log IC50−x)*slope)) where x is the logarithm of the inhibitor concentration, y is the response; y starts at bottom and goes to top with a sigmoid shape.
Background: In Kinase-Glo more light means more ATP remaining.

Experiment [2] concerns the target T2, Δ49N-hChoKα (Homo sapiens, UniProt P35790).
T2 construct: cDNA fragment 362-1534, corresponding to aminoacids 50 457; GST (N, cleaved yes); PreScission Protease recognition site (N); made in house; host or cells: Escherichia coli BL21pLysS (DE3)
Briefly: Biochemical kinase inhibition assay (Kinase-Glo luminescent) on Δ49N-hChoKα. As to conditions: recombinant Δ49N-hChoKα 2.2 nM, ATP 5 μM, choline 5 μM, 60 min rt; read-out: ChoKα IC50. As for the experimental part: as §1, §2, §3, §4, §5, §6

SMILES strings stand for the structures.

T1 sequence (Q9Y259 2-395): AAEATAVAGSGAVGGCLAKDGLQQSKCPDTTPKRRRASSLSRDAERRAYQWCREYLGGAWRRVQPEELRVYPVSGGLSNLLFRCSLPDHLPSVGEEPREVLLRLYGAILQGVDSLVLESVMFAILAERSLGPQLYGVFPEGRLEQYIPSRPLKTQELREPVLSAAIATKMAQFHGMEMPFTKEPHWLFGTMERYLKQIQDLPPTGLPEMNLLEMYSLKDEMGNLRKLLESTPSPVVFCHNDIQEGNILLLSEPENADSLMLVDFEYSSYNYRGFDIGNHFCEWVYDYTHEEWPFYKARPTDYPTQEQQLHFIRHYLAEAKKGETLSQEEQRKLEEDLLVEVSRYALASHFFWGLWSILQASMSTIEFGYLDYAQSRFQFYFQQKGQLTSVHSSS
T2 sequence (P35790 50-439 isoform P35790-2): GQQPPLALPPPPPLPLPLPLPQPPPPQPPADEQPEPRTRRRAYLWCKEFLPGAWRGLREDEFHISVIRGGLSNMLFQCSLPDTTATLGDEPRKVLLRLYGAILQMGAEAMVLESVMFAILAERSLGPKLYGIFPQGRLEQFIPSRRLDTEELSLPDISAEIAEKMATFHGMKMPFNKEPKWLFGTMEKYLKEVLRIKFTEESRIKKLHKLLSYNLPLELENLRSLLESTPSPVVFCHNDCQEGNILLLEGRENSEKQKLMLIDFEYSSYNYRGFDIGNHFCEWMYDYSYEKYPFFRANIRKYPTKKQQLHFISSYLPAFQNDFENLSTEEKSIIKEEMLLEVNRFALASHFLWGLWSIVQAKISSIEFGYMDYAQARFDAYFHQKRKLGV

In the case of `Cc1cnc(NC(=O)c2n[nH]c3c2C(C)(C)Cc2cnc(N)nc2-3)s1` [compound 65], the IC50 (usually the midpoint of a concentration-inhibition curve) in experiment [1] amounted to 1.61 µM; in experiment [2], 0.139 µM.
Take `CC1(C)Cc2cnc(N)nc2-c2[nH]nc(C(=O)Nc3ccc(C(=O)N4CCC(N5CCC(F)(F)CC5)CC4)cc3)c21` [compound 51]: the IC50 in experiment [1] was 0.273 µM; in experiment [2], 0.151 µM.
For the compound `CN(C)C1CCN(Cc2ccc(NC(=O)c3nn(C)c4c3C(C)(C)Cc3cnc(N)nc3-4)cc2)CC1` [compound 117], the IC50 is over 10 µM in experiment [1] and 0.016 µM in experiment [2].
Regarding `CN1CCN(C2CCN(C(=O)c3ccc(NC(=O)c4n[nH]c5c4C(C)(C)Cc4cnc(N)nc4-5)cc3)CC2)CC1` [compound 41], the figures for the IC50 in experiment [1] and in experiment [2] were 0.471 µM and 0.07 µM, respectively.
For the compound `CC1(C)Cc2cnc(N)nc2-c2[nH]nc(C(=O)Nc3nc(CC(=O)N4CC[C@@H]([N+](C)(C)[O-])C4)cs3)c21` [compound 154], the IC50 in experiment [1] came out at 0.564 µM; in experiment [2] it was 0.014 µM.
For the compound `CC1(C)Cc2cnc(N)nc2-c2[nH]nc(C(=O)Nc3cccc(C(=O)N4CCC(N5CCCC5)CC4)c3)c21` [compound 26], the IC50 came to 0.435 µM in experiment [1] and 0.266 µM in experiment [2].
As to `CN(C)[C@H]1CCN(C(=O)Cc2csc(NC(=O)c3n[nH]c4c3C(C)(C)Cc3cnc(N)nc3-4)n2)C1` [compound 93], the IC50 worked out at 0.761 µM in experiment [1] and 0.012 µM in experiment [2].
The matching figures for `CC1CCCN(C2CCN(C(=O)Cc3csc(NC(=O)c4n[nH]c5c4C(C)(C)Cc4cnc(N)nc4-5)n3)CC2)C1` (stereo not shown) [compound 224]: 0.213 µM and 0.005 µM.
As to `CC1(C)Cc2cnc(N)nc2-c2[nH]nc(C(=O)Nc3ccc(C(=O)N4CCC(N5CCCC5)CC4)cc3)c21` [compound 13], the IC50 in experiment [1] came to 0.122 µM; in experiment [2] it was 0.042 µM.
`CC1(C)Cc2cnc(N)nc2-c2[nH]nc(C(=O)Nc3ncc(CC(=O)O)s3)c21` [compound 72]: the IC50 in experiment [1] is 2.51 µM; in experiment [2] it was 0.268 µM.
On to `Cn1nc(C(=O)Nc2cccc(CN3CCC(N4CCCCC4)CC3)c2)c2c1-c1nc(N)ncc1CC2(C)C` [compound 109], for which the IC50 in experiment [1] was over 10 µM; in experiment [2] it was 0.431 µM.
Regarding `CN1CCC(NC(=O)c2ccc(CNC(=O)c3n[nH]c4c3C(C)(C)Cc3cnc(N)nc3-4)cc2)CC1` [compound 166], the IC50 in experiment [1] stood at 0.134 µM; in experiment [2], 0.136 µM.
In the case of `CN1CCC(NC(=O)c2ccc(NC(=O)c3n[nH]c4c3C(C)(C)Cc3cnc(N)nc3-4)cc2)CC1` [compound 8], the IC50 came out at 0.565 µM in experiment [1] and 0.087 µM in experiment [2].
Turning to `CN(C)C1CCN(C(=O)Cc2cccc(NC(=O)c3n[nH]c4c3C(C)(C)Cc3cnc(N)nc3-4)c2)CC1` [compound 146], the figures for the IC50 in experiment [1] and in experiment [2] were 0.551 µM and 0.065 µM, respectively.
As for `CC1(C)Cc2cnc(N)nc2-c2[nH]nc(C(=O)Nc3cccc(CC(=O)N4CCC(N)CC4)c3)c21` [compound 149], the figures for the IC50 in experiment [1] and in experiment [2] were 3.21 µM and 0.164 µM, respectively.
`CCOC(=O)c1cnc(NC(=O)c2n[nH]c3c2C(C)(C)Cc2cnc(N)nc2-3)s1` [compound 81]: the IC50 came to 5.34 µM in experiment [1] and 0.428 µM in experiment [2].
As for `CC1(C)Cc2cnc(N)nc2-c2[nH]nc(C(=O)Nc3ccc(C(=O)NC4CC4)cc3)c21` [compound 31], the values for the IC50 in experiment [1] and in experiment [2] were 0.431 µM and 0.257 µM, respectively.
Taken in the same sequence, the figures for `CC1(C)Cc2cnc(N)nc2-c2[nH]nc(C(=O)Nc3nc(CC(=O)N4CCC(CO)CC4)cs3)c21` [compound 91] were over 10 µM and 0.098 µM.
In the case of `CNC(=O)c1ccc(NC(=O)c2n[nH]c3c2C(C)(C)Cc2cnc(N)nc2-3)cc1` [compound 27], the IC50 in experiment [1] is 0.444 µM; in experiment [2] it was 0.267 µM.
Taken in the same sequence, the figures for `CC1CCN(C2CCN(Cc3cccc(NC(=O)c4nn(C)c5c4C(C)(C)Cc4cnc(N)nc4-5)c3)CC2)CC1` [compound 111] were over 10 µM and 0.64 µM.
The matching figures for `CC1CCN(C2CCN(C(=O)Cc3csc(NC(=O)c4c5c(nn4C)-c4nc(N)ncc4CC5(C)C)n3)CC2)CC1` [compound 211]: over 10 µM and 0.108 µM.
Regarding `CC1(C)Cc2cnc(N)nc2-c2[nH]nc(C(=O)Nc3nc(CC(=O)N4CCC(N5CCCC(F)(F)C5)CC4)cs3)c21` [compound 222], the values for the IC50 in experiment [1] and in experiment [2] were 1.65 µM and 0.01 µM, respectively.
Taken in the same sequence, the figures for `CC1CCN(C2CCN(C(=O)c3ccc(NC(=O)c4n[nH]c5c4C(C)(C)Cc4cnc(N)nc4-5)cc3)CC2)CC1` [compound 52] were 0.07 µM and 0.003 µM.
Regarding `CC1(OCc2csc(NC(=O)c3n[nH]c4c3C(C)(C)Cc3cnc(N)nc3-4)n2)CCN(C2CCCCCC2)CC1` [compound 226], the IC50 in experiment [1] was determined as 0.376 µM; in experiment [2], 0.02 µM.
For `CC1(C)Cc2cnc(N)nc2-c2[nH]nc(C(=O)Nc3nc(CC(=O)N4CCC(N)CC4)cs3)c21` [compound 44], the IC50 in experiment [1] was 0.256 µM; in experiment [2] it was 0.025 µM.
Consider `CNc1ncc2c(n1)-c1c(c(C(=O)Nc3nc(CC(=O)N4CCC(N5CCC(C)CC5)CC4)cs3)nn1C)C(C)(C)C2` [compound 85], for which the IC50 in experiment [1] was over 10 µM; in experiment [2], 0.052 µM.
Take `CC1(C)Cc2cnc(N)nc2-c2[nH]nc(C(=O)Nc3nc(COC4CCN(C5CCC(F)(F)CC5)CC4)cs3)c21` [compound 189]: the figures for the IC50 in experiment [1] and in experiment [2] were 1.56 µM and 0.031 µM, respectively.
As to `CC1(C)Cc2cnc(N)nc2-c2[nH]nc(C(=O)Nc3nc(C(=O)N4CCC(N5CCCCC5)CC4)cs3)c21` [compound 70], the IC50 came to 1.08 µM in experiment [1] and 0.035 µM in experiment [2].
Taken in the same sequence, the figures for `CC1(C)CCCN(C2CCN(C(=O)Cc3csc(NC(=O)c4n[nH]c5c4C(C)(C)Cc4cnc(N)nc4-5)n3)CC2)C1` [compound 219] were 0.296 µM and 0.002 µM.
Consider `CC1(C)Cc2cnc(N)nc2-c2[nH]nc(C(=O)Nc3ccc(O)cc3)c21` [compound 105], for which the IC50 was 0.398 µM in experiment [1] and 0.229 µM in experiment [2].
In the case of `CC1(C)Cc2cnc(N)nc2-c2[nH]nc(C(=O)Nc3nc(CC(=O)N4CCN(C5CCCCC5)CC4)cs3)c21` [compound 150], the IC50 is 0.352 µM in experiment [1] and 0.006 µM in experiment [2].
On to `CC1CCN(C2CCN(C(=O)c3ccc4nc(NC(=O)c5n[nH]c6c5C(C)(C)Cc5cnc(N)nc5-6)sc4c3)CC2)CC1` [compound 228], for which the IC50 in experiment [1] was 0.963 µM; in experiment [2], 0.009 µM.
On to `CNc1ncc2c(n1)-c1[nH]nc(C(=O)Nc3nc(CC(=O)N4CCC(N5CCC(C)CC5)CC4)cs3)c1C(C)(C)C2` [compound 122], for which the IC50 was over 10 µM in experiment [1] and 0.011 µM in experiment [2].
Take `CC1(C)Cc2cnc(N)nc2-c2[nH]nc(C(=O)Nc3nc(C4(C(=O)N5CCC(N6CCCCC6)CC5)CC4)cs3)c21` [compound 131]: the IC50 was determined as 3.94 µM in experiment [1] and 0.233 µM in experiment [2].
On to `CC1(C)Cc2cnc(N)nc2-c2[nH]nc(C(=O)Nc3ncc(C(=O)N4CCC(N5CCCCC5)CC4)s3)c21` [compound 84], for which the IC50 in experiment [1] was determined as 1.33 µM; in experiment [2] it was 0.111 µM.
